Data on 3 molecules can be found in patent US20130204033A1, “ANTIPROLIFERATIVE COMPOUNDS, CONJUGATES THEREOF, METHODS THEREFOR, AND USES THEREOF” (Medarex, Inc., priority 2009, published 2013).

Read-outs that look alike come from different tables or passages of the source.

Holding throughout (format): cell-based, human
Test [1] concerns HL-60. Description: ATP luminescence proliferation assay, HL-60. The following applies: Homo sapiens, HL-60, 48 h, read-out: EC50 HL-60 (48 h), ATP luminescence, HL-60, 48 h incubation. The protocol: (§1) This example generally describes the procedures used to assay the antiproliferative activity of compounds of this invention or their conjugates. Human tumor cell lines were obtained from the American Type Culture Collection (ATCC), P.O. Box 1549, Manassas, Va. 20108, USA, and cultured according to instruction from the ATCC. Cells were seeded at 1.0×10^3 or 1.0×10^4 cells/well in 96-well plates for 3 h for ATP assays or ^3H thymidine assays, respectively. 1:3 serial dilutions of free (unconjugated) compounds or their conjugates were added to the wells. Plates were allowed to incubate for 24 to 72 h. The ^3H thymidine plates were pulsed with 1.0 μCi of ^3H-thymidine per well for the last 24 hours of the total incubation period, harvested, and read on a Top Count Scintillation Counter (Packard Instruments, Meriden, Conn.). ATP levels in the ATP plates were measured using the […]-GLO® Luminescent Cell Viability kit following the manufacturer's manual and read on a GLOMAX® 20/20 luminometer (both from Promega, Madison, Wis., USA). The EC50 values—the concentration at which an agent inhibits or reduces cell proliferation by 50% —were determined using PRISM™ software, version 4.0 (GraphPad Software, La Jolla, Calif., USA).
(§2) Using the ^3H thymidine or the ATP luminescence assay, or both, the activities of compounds of this invention were assayed against the following cancer cell lines: HCT-15 (colorectal cancer, multi-drug resistant (MDR)); Hep3B (liver cancer); LNCaP (prostate cancer, androgen receptor positive (AR^+)); MDA-MB-231 (breast cancer, estrogen receptor, progesterone receptor, and Her2 negative (triple negative)); A2058 (melanoma); U-87 MG (glioblastoma); NCI-H460 (NSCLC); A549 (NSCLC); HPAC (pancreatic cancer, primary); PC3 (prostate cancer, AR); BT474 (breast cancer, Her2 highly positive (Her2hi)); SKOV3 (ovarian cancer, Her2hi); 786-O (renal cancer); UO-31 (renal cancer, MDR); NCI-H740 (SCLC); DMS53 (SCLC); SK-BR3 (breast cancer, Her2hi); ZR-75 (breast cancer, estrogen receptor positive); OVCAR3 (ovarian cancer); HL-60 (APL); OVCAR8/Adr (ovarian cancer, MDR); CEM-Cl (ALL); Nomo-1 (AML); RPMI-8226 (MM)); Raji (lymphoma); SW-480 (colorectal cancer, metastatic); SW-620 (colorectal cancer); and H226 (lung cancer). (Not all compounds were assayed against all cell lines.)
(§3) FIGS. 12a and 12b show illustrative plots for ATP luminescence proliferation assays for a second set of compounds of this invention, against HL-60 and 786-O cells, respectively, with an incubation period of 72 h. FIGS. 12c and 12d show the plots for ^3H thymidine proliferation assays for the same set of compounds, again against HL-60 and 786-O cells, respectively, with a 72 h incubation period. In each instance, doxorubicin was used as a comparative compound.
(§4) Table 3 provides the data for the ATP luminescence proliferation assays, with an incubation period of 48, 72, or 96 h, as noted.

Test [2] has as its system OVCAR3. Description: ATP luminescence proliferation assay, OVCAR3. The following applies: Homo sapiens, OVCAR-3, 72 h, read-out: EC50 OVCAR3 (72 h), ATP luminescence, OVCAR3, 72 h incubation. The protocol: as §1, §2, §4
Test [3] relates to H226. Description: ATP luminescence proliferation assay, H226. As to conditions: Homo sapiens, NCI-H226, 72 h incubation period, read-out: EC50 against the H226 cell line. The protocol: as §1, with “The EC50 values—the concentration at which an agent inhibits or reduces cell proliferation by 50% —were determined using PRISM™ software, version 4.0 (GraphPad Software, La Jolla, Calif., USA).” left out
as §2, with “(Not all compounds were assayed against all cell lines.)” left out

In test [4] the test system is OVCAR8/Adr. Description: ATP luminescence proliferation assay, OVCAR8/Adr. As to conditions: Homo sapiens, OVCAR-8, 48 h incubation period, read-out: EC50 against the OVACAR8/Adr cell line. The protocol: as §1, §2, §4
The test system of test [5] is 786-O. Description: ATP luminescence proliferation assay, 786-O. As to conditions: Homo sapiens. The protocol:
as §1, §2, §3, §4

Test [6] has as its system 786-O renal cancer cells, which are CD70 positive. Description: In vitro activity of conjugates, 3H thymidine proliferation assay, 786-O. As to conditions: 72 h incubation. The protocol:
as §1
The incubation period was 72 h. The EC50 values extracted from the curves of FIG. 13 are given in Table 4, along data from other experiments. […]

For `CCCN(C(=O)[C@@H](NC(=O)[C@H]1CCCCN1C)[C@@H](C)CC)[C@H](C[C@@H](OC(C)=O)c1nc(C(=O)N[C@@H](Cc2ccccc2)C(=O)OC)cs1)C(C)C` [Compound 109], the EC50 in test [1] stood at 0.019 nM; in test [2], 0.202 nM; in test [3], 1.61 nM; in test [4] it was 24.9 nM; in test [5] (786-0, 48 h, read-out: EC50 786-O (48 h), ATP luminescence, 786-O, 48 h incubation) it was 1.03 nM.

For the molecule diphtheria toxin [DTX], the EC50 in test [6] was 104 nM.

For `CCCN(C(=O)[C@@H](NC(=O)[C@H]1CCCCN1C)[C@@H](C)CC)[C@H](C[C@@H](OC(C)=O)c1nc(C(=O)N[C@@H](Cc2ccc(N)cc2)CC(C)C(=O)OCC)cs1)C(C)C` (some centres unmarked) [Compound 112], the EC50 in test [1] is 0.05 to 0.09 nM; in test [2] it was 0.049 nM; in test [3], 0.67 to 1.16 nM; in test [4], 12 nM; in test [5] (786-0, 72 h, read-out: EC50 786-O (72 h), ATP luminescence, 786-O, 72 h incubation), 0.67 nM.
